Experimental data as given in PMC6922598, “De novo design of a homo-trimeric amantadine-binding protein” (eLife, 2019).

Molecular target: T1, ABP (amantadine-binding protein)
T1 construct: de novo designed homo-trimer; GSHMG//[…]
Experiment: X-ray crystal structure ([…] Å) and neutron structure ([…] Å) of the complex; NMR titration with TITAN line shape fitting (Kd)
Parameters: species or system synthetic construct

NC12CC3CC(CC(C3)C1)C2 [amantadine]
Kd: 24.1 ± 2.7 µM
